Measured values reported in PubChem BioAssay AID2202555 (NIEHS Division of Translational Toxicology (DTT)).
Results filed as inconclusive are left out. Calls of active or inactive are those of the source. No rule for the calls is given here.

tested on: rat and mouse 2-year carcinogenicity bioassay, tumor evidence; test: Consolidated carcinogenicity assay summary data; details: Route (rodents): Dosed feed
From the text: Cancer Evaluation Criteria
The National Toxicology Program describes the results of individual experiments on a chemical agent and notes the strength of the evidence for conclusions regarding each study. […] Other organizations, such as the International Agency for Research on Cancer, assign a strength of evidence for conclusions based on an examination of all available evidence, including animal studies such as those conducted by the NTP, epidemiologic studies, and estimates of exposure. Thus, the actual determination of risk to humans from chemicals found to be carcinogenic in laboratory animals requires a wider analysis that extends beyond the purview of these studies.
Five categories of evidence of carcinogenic activity are used in the Technical Report series to summarize the strength of evidence observed in each experiment: two categories for positive results (clear evidence and some evidence); one category for uncertain findings (equivocal evidence); one category for no observable effects (no evidence); and one category for experiments that cannot be evaluated because of major flaws (inadequate study). These categories of interpretative conclusions were first adopted in June 1983 and then revised on March 1986 for use in the Technical Report series to incorporate more specifically the concept of actual weight of evidence of carcinogenic activity. For each separate experiment (male rats, female rats, male mice, female mice), one of the following five categories is selected to describe the findings. These categories refer to the strength of the experimental evidence and not to potency or mechanism.
For studies showing multiple chemical-related neoplastic effects that if considered individually would be assigned to different levels of evidence categories, the following convention has been adopted to convey completely the study results. In a study with clear evidence of carcinogenic activity at some tissue sites, other responses that alone might be deemed some evidence are indicated as "were also related" to chemical exposure. In studies with clear or some evidence of carcinogenic activity, other responses that alone might be termed equivocal evidence are indicated as "may have been" related to chemical exposure.
When a conclusion statement for a particular experiment is selected, consideration must be given to key factors that would extend the actual boundary of an individual category of evidence. Such consideration should allow for incorporation of scientific experience and current understanding of long-term carcinogenesis studies in laboratory animals, especially for those evaluations that may be on the borderline between two adjacent levels. These considerations should include:
- adequacy of the experimental design and conduct;
- occurrence of common versus uncommon neoplasia;
- progression (or lack thereof) from benign to malignant neoplasia as well as from preneoplastic to neoplastic lesions;
- some benign neoplasms have the capacity to regress but others (of the same morphologic type) progress. At present, it is impossible to identify the difference. Therefore, where progression is known to be a possibility, the most prudent course is to assume that benign neoplasms of those types have the potential to become malignant;
- combining benign and malignant tumor incidences known or thought to represent stages of progression in the same organ or tissue;
- latency in tumor induction;
- multiplicity in site -specific neoplasia;
- supporting information from proliferative lesions (hyperplasia) in the same site of neoplasia or in other experiments (same lesion in another sex or species);
- presence or absence of dose relationships;
- statistical significance of the observed tumor increase;
- concurrent control tumor incidence as well as the historical control rate and variability for a specific neoplasm;
- survival-adjusted analyses and false positive or false negative concerns;
- structure-activity correlations; and
[…]

Structure (SMILES)	carcinogen call
CNc1ccc(N(CCO)CCO)cc1[N+](=O)[O-]	active; equivocal evidence
COP(=O)(OC)O/C(=C\Cl)c1cc(Cl)c(Cl)cc1Cl	active; no evidence
ClC1=C(Cl)[C@]2(Cl)[C@H]3[C@H]([C@@H]4C=C[C@H]3C4)[C@@]1(Cl)C2(Cl)Cl	active; equivocal evidence
CCCCOC(=O)c1ccccc1C(=O)OCc1ccccc1	active; some evidence
Nc1cc(S(=O)(=O)[O-])cc2cc(S(=O)(=O)[O-])c(N=Nc3ccc(-c4ccc(N=Nc5c(S(=O)(=O)[O-])cc6cc(S(=O)(=O)[O-])cc(N)c6c5[O-])c([O-])c4)cc3[O-])c([O-])c12.[Cu+2].[Cu+2].[Na+].[Na+].[Na+].[Na+]	active; some evidence
COc1ccc(C)cc1N	active; clear evidence
CCOc1ccc(NC(C)=O)cc1[N+](=O)[O-]	active; no evidence
Nc1ccc(Cl)c(N)c1	active; clear evidence
Cc1ccc([N+](=O)[O-])cc1	active; equivocal evidence
O=C1c2ccccc2-c2ccc3c4c(ccc1c24)-c1ccccc1C3=O	active; no evidence
Cc1ccc(N=Nc2c(O)ccc3ccccc23)c([N+](=O)[O-])c1	active; some evidence
Oc1ccc2ccccc2c1N=Nc1ccccc1	active; clear evidence
Nc1ccc(Sc2ccc(N)cc2)cc1	active; clear evidence
Cc1cc(Cl)ccc1N	active; no evidence
O=C1C2(Cl)C3(Cl)C4(Cl)C(Cl)(Cl)C5(Cl)C3(Cl)C1(Cl)C5(Cl)C24Cl (stereo not drawn)	active; clear evidence
Cc1ccc(N)cc1N	active; clear evidence
ClC1=C(Cl)C2(Cl)C3C(Cl)C(Cl)CC3C1(Cl)C2(Cl)Cl (stereo not drawn)	active; no evidence
Cc1ccccc1N	active; clear evidence

Structure (SMILES)	carcinogen call
CN(C)NC(=O)CCC(=O)O	active; no evidence
Nc1nc(N)nc(N)n1	active; clear evidence
CCCCCCCCS(=O)C(C)Cc1ccc2c(c1)OCO2 (stereo not drawn)	active; no evidence
CN(C)c1ccc(Cc2ccc(N(C)C)cc2)cc1	active; clear evidence
NCCCCCCCCCCC(=O)O	active; clear evidence
ClC(Cl)=C(c1ccc(Cl)cc1)c1ccc(Cl)cc1	active; no evidence
ClC1=C(Cl)C2(Cl)C3C(Cl)C=CC3C1(Cl)C2(Cl)Cl (stereo not drawn)	active; no evidence
O=[N+]([O-])c1ccc(Oc2ccc(Cl)cc2Cl)cc1	active; no evidence
N#Cc1c(Cl)c(Cl)c(Cl)c(C#N)c1Cl	active; clear evidence
Nc1ccc(Oc2ccc(N)cc2)cc1	active; clear evidence
CC(=O)Nc1ccc(N=Nc2cc(C)ccc2O)cc1	active; clear evidence
O=[N+]([O-])c1ccc2nc[nH]c2c1	active; no evidence
O=C1Nc2ccc(Cl)cc2C(c2ccccc2)=NC1O (stereo not drawn)	active; equivocal evidence
CCNC(=O)Nc1ncc([N+](=O)[O-])s1	active; no evidence
Nc1ccc(N=Nc2ccccc2)c(N)n1	active; clear evidence
O=C1C2CC=CCC2C(=O)N1SC(Cl)(Cl)Cl (stereo not drawn)	active; no evidence
CCC1(c2ccccc2)C(=O)NCNC1=O	active; equivocal evidence

same assay, conditions: Route (rodents): Dosed water

Structure (SMILES)	carcinogen call
CC(C)(C)O	active; some evidence
C=CC(N)=O	active; clear evidence
[O-][Cl+2]([O-])O	active; some evidence
COc1cc(-c2ccc(N)c(OC)c2)ccc1N	active; clear evidence
[O]=[Cr](=[O])([OH])[O][Cr](=[O])(=[O])[OH]	active; clear evidence
O=C(O)C(Cl)Br (stereo not drawn)	active; clear evidence
c1ccncc1	active; some evidence
Cc1cccnc1	active; no evidence
O=C(O)C(Cl)(Cl)Br	active; clear evidence

same assay, conditions: Route (rodents): Gavage

Structure (SMILES)	carcinogen call
CN(C)c1ccc2nc3ccc(=[N+](C)C)cc-3sc2c1	active; some evidence
C=C(C)CCl	active; clear evidence
COC(N)=O	active; clear evidence
O=C(O)c1cc(N=Nc2ccc(S(=O)(=O)Nc3ccccn3)cc2)ccc1O	active; some evidence
O=[N+]([O-])c1ccc(Nc2ccc(Nc3ccccc3)c(S(=O)(=O)O)c2)c([N+](=O)[O-])c1	active; no evidence
C=CC1CC=CCC1 (stereo not drawn)	active; inadequate study
c1ccccc1	active; clear evidence
c1ccoc1	active; clear evidence
ClCC(Cl)CCl	active; clear evidence
Nc1cc([N+](=O)[O-])ccc1O	active; some evidence
COc1ccc(N)c(C)c1	active; clear evidence
C=CCOC(=O)CC(C)C	active; clear evidence
CC=CC=CC=O	active; clear evidence
O=P(OCCCl)(OCCCl)OCCCl	active; clear evidence
ClCC(Cl)(Cl)Cl	active; equivocal evidence
C=CCN=C=S	active; clear evidence

Structure (SMILES)	carcinogen call
Clc1ccc(-c2cc(Cl)c(Cl)cc2Cl)cc1Cl	active
CC(Cl)CCl (stereo not drawn)	active; no evidence
O=Cc1ccco1	active; some evidence
COc1c(Cl)c(Cl)c(Cl)c(Cl)c1Cl	active; some evidence
Nc1ccc(O)c(N)c1	active; no evidence
ClC(Cl)C(Cl)Cl	active; equivocal evidence
S=c1[nH]c2ccccc2s1	active; some evidence
c1cc(OCC2CO2)cc(OCC2CO2)c1 (stereo not drawn)	active; clear evidence
c1ccc2occc2c1	active; no evidence
Oc1ccc(O)cc1	active; some evidence
Nc1ccc(Cl)cc1	active; clear evidence
CN(C)c1ccccc1	active; some evidence
COP(=O)(OC)OC	active; clear evidence
[Cl-].[Cl-].[Hg+2]	active; some evidence
ClC(Cl)Cl	active; clear evidence

same assay, conditions: Route (rodents): Gavage; Second Route: Dosed Feed

Structure (SMILES)	carcinogen call
CC(=O)OCc1ccccc1	active; equivocal evidence
COP(=O)(OC)OC=C(Cl)Cl	active; some evidence

same assay, conditions: Route (rodents): Gavage; Second Route: Dosed Water

Structure (SMILES)	carcinogen call
ClC(Cl)Br	active; clear evidence

same assay, conditions: Route (rodents): Gavage; Second Route: Topical

Structure (SMILES)	carcinogen call
Clc1cc2c(cc1Cl)Oc1cc(Cl)c(Cl)cc1O2	active; clear evidence
Clc1cc2c(c(Cl)c1Cl)Oc1cc(Cl)c(Cl)c(Cl)c1O2	active; equivocal evidence
S=[Se]	active; clear evidence

same assay, conditions: Route (rodents): Inhalation

Structure (SMILES)	carcinogen call
C1CCC2CCCCC2C1 (stereo not drawn)	active; clear evidence
[O]=[Sb][O][Sb]=[O]	active; some evidence
ClCCl	active; some evidence
C1CO1	active
C=CC(=C)C	active; clear evidence
[P]#[In]	active; clear evidence
C1CCOC1	active; some evidence
C=C(C)C	active; some evidence
OCc1ccco1	active; some evidence

same assay, conditions: Route (rodents): Inhalation; Second Route: Gavage

Structure (SMILES)	carcinogen call
BrCCBr	active; clear evidence

same assay, conditions: Route (rodents): Interperitoneal

Structure (SMILES)	carcinogen call
COc1ccc(C(=O)/C(Br)=C\C(=O)O)cc1	active; clear evidence
CC(COc1ccccc1)N(CCCl)Cc1ccccc1 (stereo not drawn)	active; clear evidence

same assay, conditions: Route (rodents): Topical

Structure (SMILES)	carcinogen call
OCC(Br)CBr (stereo not drawn)	active; clear evidence
CC1=CC(C)(C)Nc2ccccc21	active; some evidence
C1CC2OC2CC1C1CO1 (stereo not drawn)	active; clear evidence
Oc1cccc(O)c1O	active; no evidence
C=CC(=O)OCC(CC)(COC(=O)C=C)COC(=O)C=C	active; equivocal evidence
